{"source": "patent US20160101090A1", "about": "“INHIBITION OF TRK KINASE MEDIATED TUMOR GROWTH AND DISEASE PROGRESSION” (DECIPHERA PHARMACEUTICALS, LLC, priority 2014, published 2016)", "key": {"[1]": {"biological_target": "T1, NTRK2 (Homo sapiens, UniProt Q16620)", "T1 construct": "endogenous in cells; host or cells: SK-N-SH (ATCC HTB-11), differentiated with 10 µM all-trans retinoic acid", "T1 sequence (Q16620 32-822)": "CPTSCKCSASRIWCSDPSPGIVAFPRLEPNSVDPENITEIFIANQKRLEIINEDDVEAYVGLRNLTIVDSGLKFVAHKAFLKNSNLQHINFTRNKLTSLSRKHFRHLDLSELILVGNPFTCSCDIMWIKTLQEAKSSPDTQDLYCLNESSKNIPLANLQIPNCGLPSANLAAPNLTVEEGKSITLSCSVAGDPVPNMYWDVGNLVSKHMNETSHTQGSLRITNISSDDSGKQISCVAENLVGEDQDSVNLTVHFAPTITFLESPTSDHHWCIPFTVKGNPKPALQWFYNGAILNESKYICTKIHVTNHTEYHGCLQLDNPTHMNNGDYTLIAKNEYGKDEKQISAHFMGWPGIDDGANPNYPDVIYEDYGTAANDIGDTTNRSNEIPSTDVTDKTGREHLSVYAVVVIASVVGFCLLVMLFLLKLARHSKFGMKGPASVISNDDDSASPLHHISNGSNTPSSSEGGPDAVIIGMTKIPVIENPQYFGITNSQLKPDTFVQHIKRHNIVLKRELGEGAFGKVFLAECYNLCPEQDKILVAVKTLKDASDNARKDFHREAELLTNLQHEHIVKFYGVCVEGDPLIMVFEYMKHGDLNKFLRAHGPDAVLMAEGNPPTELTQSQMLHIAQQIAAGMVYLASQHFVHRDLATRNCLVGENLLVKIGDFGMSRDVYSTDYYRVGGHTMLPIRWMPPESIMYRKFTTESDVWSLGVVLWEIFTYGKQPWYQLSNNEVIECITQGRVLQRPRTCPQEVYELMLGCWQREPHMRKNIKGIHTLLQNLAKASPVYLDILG", "test": "SK-N-SH (retinoic acid differentiated) phospho-NTRK2 Western blot", "assay_type": "cell-based", "details": "SK-N-SH cells differentiated with all-trans retinoic acid, BDNF 100 ng/mL stimulated; read-out: IC50, inhibition of NTRK2 phosphorylation", "method": "SK-N-SH cells (catalog #HTB-11) were obtained from the American Type Culture Collection (ATCC; Manassas, Va.). Briefly, SK-N-SH cells were grown in MEM medium supplemented with 10% characterized fetal bovine serum and 1% Penicillin-Streptomycin-L-glutamine solution (Invitrogen, Carlsbad, Calif.) at 37 degrees Celsius, 5% CO2, and 95% humidity. Cells were allowed to expand until reaching 70-95% confluency at which point they were subcultured. To induce expression of NTRK2, cells were grown in growth medium containing 10 μM all-trans retinoic acid for ten to fourteen days prior to harvesting cells for assay use.\n(§1) Two hundred fifty thousand cells differentiated with 10 μM all-trans retinoic acid in growth medium were added per well in a 12-well tissue-culture treated plate. The plate was incubated overnight at 37 degrees Celsius, 5% CO2, and 95% humidity. The next day, growth media was aspirated, cells were washed with serum-free MEM media, and one milliliter serum-free MEM media was added per well. […] Phospho-NTRK2 (Tyr706/707) was detected using an antibody from Cell Signaling Technology (Beverly, Mass.), ECL Plus detection reagent (GE Healthcare, Piscataway, N.J.) and a Molecular Devices Storm 840 phosphorimager in fluorescence mode. […] IC50 values were calculated using Prism software (Graphpad, San Diego, Calif.)."}, "[2]": {"biological_target": "T2, NTRK1 kinase phosphorylation (TPM3-NTRK1) (Homo sapiens, UniProt P04629)", "T2 construct": "chromosomal translocation of the kinase domain of NTRK1, NTRK2, or NTRK3 with a variety of N-terminal fusion partners; TPM3 N-terminal portion (fusion partner, P06753); endogenous in cells; host or cells: KM-12 (NCI DCTD Tumor Repository); also grown as subcutaneous xenograft in mice; the other entry of the earlier key: TPM3 (P06753, Tropomyosin alpha-3 chain)", "T2 sequence (P04629 with tags, fused parts or gaps)": "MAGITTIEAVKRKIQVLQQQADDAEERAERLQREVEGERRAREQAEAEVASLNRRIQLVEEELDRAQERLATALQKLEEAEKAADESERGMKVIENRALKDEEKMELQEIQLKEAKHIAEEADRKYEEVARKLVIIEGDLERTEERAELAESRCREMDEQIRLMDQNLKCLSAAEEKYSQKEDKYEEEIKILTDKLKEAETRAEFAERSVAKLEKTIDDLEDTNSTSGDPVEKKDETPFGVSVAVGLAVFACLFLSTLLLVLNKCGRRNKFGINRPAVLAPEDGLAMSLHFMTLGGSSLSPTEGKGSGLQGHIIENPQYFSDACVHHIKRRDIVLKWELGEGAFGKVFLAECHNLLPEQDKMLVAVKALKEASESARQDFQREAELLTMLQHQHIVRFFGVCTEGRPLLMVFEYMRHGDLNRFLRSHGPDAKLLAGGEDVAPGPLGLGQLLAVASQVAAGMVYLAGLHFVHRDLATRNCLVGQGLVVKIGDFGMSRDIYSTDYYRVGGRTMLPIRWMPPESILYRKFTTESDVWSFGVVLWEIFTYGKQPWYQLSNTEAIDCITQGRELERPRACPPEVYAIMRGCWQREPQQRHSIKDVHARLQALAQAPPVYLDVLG", "test": "KM-12 TPM3-NTRK1 xenograft model, inhibition of NTRK1 phosphorylation in tumors after a single dose", "assay_type": "in vivo, Mice", "details": "KM12, mouse, po; for inhibition at 15 mg/kg: single dose 15 mg/kg PO; for inhibition at 7.5 mg/kg: single oral dose 7.5 mg/kg", "description": "(§2) Mice were implanted subcutaneously and a single treatment was given on Day 8. At time points after the single oral dose, tumors were resected, frozen, pulverized, and then lysed. Lysates were separated by SDS-PAGE and protein was transferred to PVDF. Phospho-NTRK1 (Tyr674/675) was detected using an antibody from Cell Signaling Technology (Beverly, Mass.), ECL Plus detection reagent (GE Healthcare, Piscataway, N.J.) and a Molecular Devices Storm 840 phosphorimager in fluorescence mode. Blots were stripped and probed for total NTRK1 using an antibody from Santa Cruz Biotech (Santa Cruz, Calif.)."}, "[3]": {"biological_target": "T3, TPM3-NTRK1 (Homo sapiens, UniProt P04629)", "T3 construct": "chromosomal translocation of the kinase domain of NTRK1, NTRK2, or NTRK3 with a variety of N-terminal fusion partners; TPM3 N-terminal portion (fusion partner, P06753); endogenous in cells; host or cells: KM-12 (NCI DCTD Tumor Repository); also grown as subcutaneous xenograft in mice; the other entry of the earlier key: TPM3 (P06753, Tropomyosin alpha-3 chain)", "test": "KM-12 phospho-NTRK1 Western blot", "assay_type": "cell-based", "details": "KM-12 cells, 4 h compound; read-out: IC50, inhibition of TPM3-NTRK1 phosphorylation", "method": "Briefly, cells were grown in RPMI 1640 media supplemented with 10% characterized fetal bovine serum and 1% Penicillin/Streptomycin/L-glutamine solution (Invitrogen, Carlsbad, Calif.) at 37 degrees Celsius, 5% CO2, and 95% humidity. Cells were allowed to expand until reaching 70-95% confluency at which point they were subcultured or harvested for assay use.\nTwo hundred fifty thousand cells in growth medium were added per well in a 24-well tissue-culture treated plate. The plate was incubated overnight at 37 degrees Celsius, 5% CO2, and 95% humidity. The next day, a serial dilution of test compound was added to the cells, and plates were incubated for 4 hours at 37 degrees Celsius, 5% CO2, and 95% humidity. Media was then aspirated, cells were washed with PBS, and then lysed. Cell lysates were separated by SDS-PAGE and transferred to PVDF. Phospho-NTRK1 (Tyr674/675) was detected using an antibody from Cell Signaling Technology (Beverly, Mass.), ECL Plus detection reagent (GE Healthcare, Piscataway, N.J.) and a Molecular Devices Storm 840 phosphorimager in fluorescence mode. Blots were stripped and probed for total NTRK1 using an antibody from Santa Cruz Biotech (Santa Cruz, Calif.). IC50 values were calculated using Prism software (Graphpad, San Diego, Calif.)."}, "[4]": {"biological_target": "T4, NTRK1 (SEQ ID No. 1) recombinant kinase (Homo sapiens, UniProt P04629)", "T4 construct": "purchased Invitrogen", "T4 sequence (P04629 with tags, fused parts or gaps)": "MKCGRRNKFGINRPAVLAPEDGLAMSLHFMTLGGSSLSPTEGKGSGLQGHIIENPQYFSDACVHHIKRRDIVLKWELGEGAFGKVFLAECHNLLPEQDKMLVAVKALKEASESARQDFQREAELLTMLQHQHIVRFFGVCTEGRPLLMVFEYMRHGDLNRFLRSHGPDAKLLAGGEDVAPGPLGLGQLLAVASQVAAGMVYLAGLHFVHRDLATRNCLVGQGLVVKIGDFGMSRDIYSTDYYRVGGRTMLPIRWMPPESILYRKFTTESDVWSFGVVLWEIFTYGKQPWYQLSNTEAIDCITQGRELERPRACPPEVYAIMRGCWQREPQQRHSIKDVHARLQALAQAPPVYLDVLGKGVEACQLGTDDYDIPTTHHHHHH", "test": "Recombinant NTRK1 kinase assay (ADP production coupled to pyruvate kinase/lactate dehydrogenase)", "assay_type": "biochemical", "details": "recombinant NTRK1 4.7 nM, ATP 1 mM", "description": "NTRK1 protein sequence used for screening (SEQ ID No. 1)"}, "[5]": {"test_system": "NIH-3T3 ETV6-NTRK3 xenograft", "test": "Transfected NIH-3T3 ETV6-NTRK3 xenograft model, single-agent efficacy", "assay_type": "in vivo, Mice", "details": "15 mg/kg, PO, BID, p<0.05", "description": "Mice were implanted subcutaneously and treatment began on Day 4. Treatments ended on Day 24 after three weeks of treatment."}, "[6]": {"biological_target": "T5, NTRK2 (SEQ ID No. 2) recombinant kinase (Homo sapiens, UniProt Q16620)", "T5 construct": "purchased Invitrogen", "T5 sequence (Q16620 with tags, fused parts or gaps)": "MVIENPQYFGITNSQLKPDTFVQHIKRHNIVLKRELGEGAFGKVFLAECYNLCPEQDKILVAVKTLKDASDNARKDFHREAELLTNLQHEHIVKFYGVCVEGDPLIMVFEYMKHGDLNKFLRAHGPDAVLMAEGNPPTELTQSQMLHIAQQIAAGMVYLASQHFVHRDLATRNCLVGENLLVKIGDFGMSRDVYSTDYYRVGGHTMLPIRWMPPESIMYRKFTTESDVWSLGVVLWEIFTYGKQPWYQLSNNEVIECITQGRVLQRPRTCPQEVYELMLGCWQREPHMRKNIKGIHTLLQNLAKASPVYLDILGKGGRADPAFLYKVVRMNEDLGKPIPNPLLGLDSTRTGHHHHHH", "test": "Recombinant NTRK2 kinase assay (ADP production coupled to pyruvate kinase/lactate dehydrogenase)", "assay_type": "biochemical", "details": "recombinant NTRK2 4 nM, ATP 1 mM", "description": "NTRK2 protein sequence used for screening (SEQ ID No. 2)"}, "[7]": {"biological_target": "T6, NTRK1 (Homo sapiens, UniProt P04629)", "T6 sequence (P04629 33-796)": "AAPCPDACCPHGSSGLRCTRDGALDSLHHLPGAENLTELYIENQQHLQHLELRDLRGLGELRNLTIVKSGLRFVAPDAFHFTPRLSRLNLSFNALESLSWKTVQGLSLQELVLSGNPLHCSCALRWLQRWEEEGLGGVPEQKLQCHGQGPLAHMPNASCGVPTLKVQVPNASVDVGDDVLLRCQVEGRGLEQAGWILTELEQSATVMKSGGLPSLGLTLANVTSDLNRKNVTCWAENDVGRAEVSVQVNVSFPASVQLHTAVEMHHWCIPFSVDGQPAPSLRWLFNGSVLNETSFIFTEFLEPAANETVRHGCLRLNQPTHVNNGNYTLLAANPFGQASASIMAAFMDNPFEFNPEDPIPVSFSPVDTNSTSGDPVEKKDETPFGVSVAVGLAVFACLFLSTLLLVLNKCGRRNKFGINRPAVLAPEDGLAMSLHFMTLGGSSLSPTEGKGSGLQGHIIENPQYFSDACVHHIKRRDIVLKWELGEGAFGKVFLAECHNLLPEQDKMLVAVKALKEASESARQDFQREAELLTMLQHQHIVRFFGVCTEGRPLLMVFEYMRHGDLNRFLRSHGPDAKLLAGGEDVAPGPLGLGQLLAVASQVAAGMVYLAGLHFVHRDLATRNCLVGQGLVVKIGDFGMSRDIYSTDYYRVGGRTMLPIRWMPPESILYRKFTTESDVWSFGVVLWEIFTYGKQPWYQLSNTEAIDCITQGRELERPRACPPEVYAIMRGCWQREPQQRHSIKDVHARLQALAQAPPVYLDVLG", "test": "K562 phospho-NTRK1 Western blot", "assay_type": "cell-based", "set-up": "endogenous in cells", "details": "K562 cells, 4 h compound, NGF 100 ng/mL stimulated; read-out: IC50, inhibition of NTRK1 phosphorylation", "method": "(§3) K562 cells (catalog #CCL-243) were obtained from the American Type Culture Collection (ATCC; Manassas, Va.). Briefly, K562 cells were grown in suspension in IMDM medium supplemented with 10% characterized fetal bovine serum and 1% Penicillin-Streptomycin-L-glutamine solution (Invitrogen, Carlsbad, Calif.) at 37 degrees Celsius, 5% CO2, and 95% humidity. Cells were allowed to expand until reaching one to three million cells per milliliter at which point they were subcultured or harvested for assay use.\nOne million cells in serum-free IMDM media were added per well in a 24-well tissue-culture treated plate. A serial dilution of test compound was added to cells and plates were incubated for 4 hours at 37 degrees Celsius, 5% CO2, and 95% humidity. Cells were then stimulated for 10 minutes with 100 ng/mL NGF (R&D Systems, Minneapolis, Minn.). Cells pelleted by centrifugation, washed with PBS, then lysed. Cell lysates were separated by SDS-PAGE and transferred to PVDF. Phospho-NTRK1 (Tyr674/675) was detected using an antibody from Cell Signaling Technology (Beverly, Mass.), ECL Plus detection reagent (GE Healthcare, Piscataway, N.J.) and a Molecular Devices Storm 840 phosphorimager in fluorescence mode. Blots were stripped and probed for total NTRK1 using an antibody from Santa Cruz Biotech (Santa Cruz, Calif.). IC50 values were calculated using Prism software (Graphpad, San Diego, Calif.)."}, "[8]": {"test_system": "Transfected NIH-3T3 ETV6-NTRK3 cells", "test": "Transfected NIH-3T3 ETV6-NTRK3 cell proliferation assay (resazurin)", "assay_type": "cell-based", "details": "Mus musculus, NIH3T3, 144 h; transfected NIH-3T3 cells, six days, 0.5% FBS; read-out: IC50, inhibition of proliferation, ETV6-NTRK3 transfected NIH-3T3", "method": "Transfected NIH-3T3 ETV6-NTRK3 cells were obtained from the laboratory of James Fagin, MD (Memorial Sloan Kettering Cancer Center). Briefly, cells were grown in DMEM media supplemented with 10% characterized fetal bovine serum, 1% Penicillin/Streptomycin/L-glutamine solution (Life Technologies, Carlsbad, Calif.) and 1 μg/mL puromycin (Invitrogen, Carlsbad, Calif.) at 37 degrees Celsius, 5% CO2, and 95% humidity. Cells were allowed to expand until reaching approximately 75% confluency at which point they were subcultured or harvested for assay use."}, "[9]": {"biological_target": "T6, NTRK1", "test": "SK-N-SH phospho-NTRK1 Western blot", "assay_type": "cell-based", "set-up": "endogenous in cells; host or cells: SK-N-SH (ATCC HTB-11)", "details": "SK-N-SH cells, 4 h compound, NGF 100 ng/mL stimulated; read-out: IC50, inhibition of NTRK1 phosphorylation", "method": "as §3, with “SK-N-SH” for “K562”, “#HTB-11)” for “#CCL-243)”, “MEM” for “suspension in IMDM”, “70-95% confluency” for “one to three million cells per milliliter”\nas §1, with “cells” for “cells differentiated with 10 μM all-trans retinoic acid”, “24-well” for “12-well”, “well. A serial dilution of test compound was added to the cells, and plates were incubated for 4 hours at 37 degrees Celsius, 5% CO2, and 95% humidity. Cells were then stimulated for 10 minutes with 100 ng/mL NGF (R&D Systems, Minneapolis, Minn.).” for “well.”, “Phospho-NTRK1 (Tyr674/675)” for “Phospho-NTRK2 (Tyr706/707)”"}, "[10]": {"test_system": "KM-12 TPM3-NTRK1 xenograft", "test": "KM-12 TPM3-NTRK1 xenograft model, single-agent efficacy", "assay_type": "in vivo, Mice", "details": "PO, BID", "description": "Mice were implanted subcutaneously and treatment began on Day 5. Treatments ended on Day 25 after three weeks of treatment."}, "[11]": {"test_system": "NTRK3 kinase phosphorylation (ETV6-NTRK3)", "test": "Transfected NIH-3T3 ETV6-NTRK3 xenograft model, inhibition of NTRK3 phosphorylation in tumors after a single dose", "assay_type": "in vivo, Mice", "details": "single dose 15 mg/kg PO", "description": "as §2, with “6.” for “8.”, “doses,” for “dose,”, “Phospho-NTRK3 (Tyr516)” for “Phospho-NTRK1 (Tyr674/675)”, “mode.” for “mode. Blots were stripped and probed for total NTRK1 using an antibody from Santa Cruz Biotech (Santa Cruz, Calif.).”"}, "[12]": {"details": "3.75 mg/kg, not statistically significant"}}, "note": "Where two headings read alike, the source gives them in different places."}
{"smiles": "O=C(Nc1cc(Oc2cc(F)c(NC(=O)C3(C(=O)Nc4ccc(F)cc4)CC3)cc2F)ccn1)C1CC1", "note": "[Compound 1, N-(4-(2-(cyclopropanecarboxamido)pyridin-4-yloxy)-2,5-difluorophenyl)-N′-(4)cyclopropane-1,1-dicarboxamide]", "values": [{"measurement": "IC50", "setting": "[1]", "result": 0.24, "unit": "nM"}, {"measurement": "inhibition at 15 mg/kg", "setting": "[2]; 24 hours post dose, read-out: inhibition of NTRK1 phosphorylation", "result": 79, "unit": "%"}, {"measurement": "inhibition at 15 mg/kg", "setting": "[2]; through 18 hours post dose, read-out: inhibition of NTRK1 kinase phosphorylation in vivo", "result": "~95", "unit": "%"}, {"measurement": "inhibition at 7.5 mg/kg", "setting": "[2]; 12 hours post dose", "result": 66, "unit": "%"}, {"measurement": "inhibition at 7.5 mg/kg", "setting": "[2]; 18 hours post dose", "result": 74, "unit": "%"}, {"measurement": "inhibition at 7.5 mg/kg", "setting": "[2]; 24 hours post dose", "result": 59, "unit": "%"}, {"measurement": "inhibition at 7.5 mg/kg", "setting": "[2]; for 8 hours", "result": "> 95", "unit": "%"}, {"measurement": "IC50", "setting": "[3]", "result": 1.4, "unit": "nM"}, {"measurement": "IC50", "setting": "[4]", "result": 0.71, "unit": "nM"}, {"measurement": "tumor growth delay", "setting": "[5]; Day 4 to Day 24", "result": 26.5, "unit": "days"}, {"measurement": "Day 8 % T/C", "setting": "[5]", "result": 6, "unit": "%"}, {"measurement": "IC50", "setting": "[6]", "result": 4.6, "unit": "nM"}, {"measurement": "IC50", "setting": "[7]", "result": 0.69, "unit": "nM"}, {"measurement": "IC50", "setting": "[8]", "result": 0.44, "unit": "nM"}, {"measurement": "IC50", "setting": "[9]", "result": 1, "unit": "nM"}, {"measurement": "Day 11 % T/C", "setting": "[10]; [12]", "result": 39, "unit": "%"}, {"measurement": "tumor growth delay", "setting": "[10]; [12]", "result": 4.5, "unit": "days"}, {"measurement": "tumor growth delay", "setting": "[10]; 7.5 mg/kg, Day 5 to Day 25, p<0.05", "result": 11.4, "unit": "days"}, {"measurement": "Day 11 % T/C", "setting": "[10]; 7.5 mg/kg, p<0.05", "result": 22, "unit": "%"}, {"measurement": "tumor growth delay", "setting": "[10]; 15 mg/kg, Day 5 to Day 25, p<0.05", "result": 17.8, "unit": "days"}, {"measurement": "Day 11 % T/C", "setting": "[10]; 15 mg/kg, p<0.05", "result": 16, "unit": "%"}, {"measurement": "inhibition of NTRK3 phosphorylation", "setting": "[11]; 18 hours post dose", "result": 63, "unit": "%"}, {"measurement": "inhibition of NTRK3 phosphorylation", "setting": "[11]; 24 hours post dose", "result": 23, "unit": "%"}, {"measurement": "inhibition of NTRK3 kinase phosphorylation in vivo", "setting": "[11]; through 12 hours post dose", "result": "> 95", "unit": "%"}]}
